Source: the NIST ThermoML archive (doi:10.1016/j.fluid.2011.09.037)

Test: osmotic coefficient (dimensionless); mn = molality of the nth substance listed, in mol/kg
Details: 323.15 K, 101 kPa, Liquid, vapor pressure osmometer

CCC(C)O (configuration not stated) [butan-2-ol] + CCCCCC[n+]1ccn(C)c1.O=S(=O)([N-]S(=O)(=O)C(F)(F)F)C(F)(F)F
Details	osmotic coefficient
m1 = 0.0478	0.834
m1 = 0.076	0.769
m1 = 0.1019	0.659
m1 = 0.2141	0.532
m1 = 0.3112	0.443
m1 = 0.4257	0.403
m1 = 0.5354	0.369
m1 = 0.72	0.324
m1 = 1.008	0.285
m1 = 1.311	0.251
m1 = 1.722	0.231
m1 = 2.107	0.219
m1 = 2.477	0.214
m1 = 2.87	0.195

CCCCCO [pentan-1-ol] + CCCCCC[n+]1ccn(C)c1.O=S(=O)([N-]S(=O)(=O)C(F)(F)F)C(F)(F)F
Details	osmotic coefficient
m1 = 0.0502	0.467
m1 = 0.0781	0.411
m1 = 0.1123	0.372
m1 = 0.1977	0.313
m1 = 0.3009	0.267
m1 = 0.4054	0.24
m1 = 0.4903	0.214
m1 = 0.8026	0.178
m1 = 1.11	0.163
m1 = 1.368	0.149
m1 = 1.723	0.12
m1 = 2.211	0.095
m1 = 2.657	0.096
m1 = 3.231	0.091

CC(C)O [propan-2-ol] + CCCCCC[n+]1ccn(C)c1.O=S(=O)([N-]S(=O)(=O)C(F)(F)F)C(F)(F)F
Details	osmotic coefficient
m1 = 0.0549	0.902
m1 = 0.0805	0.876
m1 = 0.0992	0.841
m1 = 0.2037	0.678
m1 = 0.3092	0.572
m1 = 0.4087	0.524
m1 = 0.5171	0.485
m1 = 0.8189	0.429
m1 = 1.111	0.387
m1 = 1.405	0.355
m1 = 1.712	0.321
m1 = 2.193	0.314
m1 = 2.655	0.304
m1 = 3.207	0.294

CCCO [propan-1-ol] + CCCCCC[n+]1ccn(C)c1.O=S(=O)([N-]S(=O)(=O)C(F)(F)F)C(F)(F)F
Details	osmotic coefficient
m1 = 0.0281	0.906
m1 = 0.0539	0.866
m1 = 0.081	0.797
m1 = 0.1046	0.716
m1 = 0.2004	0.621
m1 = 0.3018	0.523
m1 = 0.4154	0.46
m1 = 0.519	0.445
m1 = 0.8326	0.386
m1 = 1.14	0.342
m1 = 1.432	0.316
m1 = 1.742	0.306
m1 = 2.247	0.288
m1 = 2.739	0.265
m1 = 3.188	0.247

CCCCO [butan-1-ol] + CCCCCC[n+]1ccn(C)c1.O=S(=O)([N-]S(=O)(=O)C(F)(F)F)C(F)(F)F
Details	osmotic coefficient
m1 = 0.0466	0.746
m1 = 0.0832	0.604
m1 = 0.1034	0.574
m1 = 0.1973	0.461
m1 = 0.2989	0.411
m1 = 0.3965	0.362
m1 = 0.4907	0.343
m1 = 0.6881	0.295
m1 = 0.9952	0.245
m1 = 1.304	0.212
m1 = 1.685	0.2
m1 = 2.109	0.18
m1 = 2.479	0.172
m1 = 2.947	0.161
m1 = 3.291	0.162
